Experimental data published in patent US8952034B2, “Fused heterocyclic compounds as ion channel modulators” (Gilead Sciences, Inc., priority 2009, dated 2015).

target: wild-type human cardiac sodium channel, hNav1.5 (Homo sapiens, UniProt Q14524); assay: Late INa screening assay (automated whole cell patch clamp, PatchXpress); type: cell-based; conditions: compound at 1 μM; HEK293 cells expressing hNav1.5; late INa generated with 10 μM Tefluthrin (or 50 nM ATX II); read-out: LateINa_1 uM (percent block of late INa)
Sequence (Q14524 whole entry): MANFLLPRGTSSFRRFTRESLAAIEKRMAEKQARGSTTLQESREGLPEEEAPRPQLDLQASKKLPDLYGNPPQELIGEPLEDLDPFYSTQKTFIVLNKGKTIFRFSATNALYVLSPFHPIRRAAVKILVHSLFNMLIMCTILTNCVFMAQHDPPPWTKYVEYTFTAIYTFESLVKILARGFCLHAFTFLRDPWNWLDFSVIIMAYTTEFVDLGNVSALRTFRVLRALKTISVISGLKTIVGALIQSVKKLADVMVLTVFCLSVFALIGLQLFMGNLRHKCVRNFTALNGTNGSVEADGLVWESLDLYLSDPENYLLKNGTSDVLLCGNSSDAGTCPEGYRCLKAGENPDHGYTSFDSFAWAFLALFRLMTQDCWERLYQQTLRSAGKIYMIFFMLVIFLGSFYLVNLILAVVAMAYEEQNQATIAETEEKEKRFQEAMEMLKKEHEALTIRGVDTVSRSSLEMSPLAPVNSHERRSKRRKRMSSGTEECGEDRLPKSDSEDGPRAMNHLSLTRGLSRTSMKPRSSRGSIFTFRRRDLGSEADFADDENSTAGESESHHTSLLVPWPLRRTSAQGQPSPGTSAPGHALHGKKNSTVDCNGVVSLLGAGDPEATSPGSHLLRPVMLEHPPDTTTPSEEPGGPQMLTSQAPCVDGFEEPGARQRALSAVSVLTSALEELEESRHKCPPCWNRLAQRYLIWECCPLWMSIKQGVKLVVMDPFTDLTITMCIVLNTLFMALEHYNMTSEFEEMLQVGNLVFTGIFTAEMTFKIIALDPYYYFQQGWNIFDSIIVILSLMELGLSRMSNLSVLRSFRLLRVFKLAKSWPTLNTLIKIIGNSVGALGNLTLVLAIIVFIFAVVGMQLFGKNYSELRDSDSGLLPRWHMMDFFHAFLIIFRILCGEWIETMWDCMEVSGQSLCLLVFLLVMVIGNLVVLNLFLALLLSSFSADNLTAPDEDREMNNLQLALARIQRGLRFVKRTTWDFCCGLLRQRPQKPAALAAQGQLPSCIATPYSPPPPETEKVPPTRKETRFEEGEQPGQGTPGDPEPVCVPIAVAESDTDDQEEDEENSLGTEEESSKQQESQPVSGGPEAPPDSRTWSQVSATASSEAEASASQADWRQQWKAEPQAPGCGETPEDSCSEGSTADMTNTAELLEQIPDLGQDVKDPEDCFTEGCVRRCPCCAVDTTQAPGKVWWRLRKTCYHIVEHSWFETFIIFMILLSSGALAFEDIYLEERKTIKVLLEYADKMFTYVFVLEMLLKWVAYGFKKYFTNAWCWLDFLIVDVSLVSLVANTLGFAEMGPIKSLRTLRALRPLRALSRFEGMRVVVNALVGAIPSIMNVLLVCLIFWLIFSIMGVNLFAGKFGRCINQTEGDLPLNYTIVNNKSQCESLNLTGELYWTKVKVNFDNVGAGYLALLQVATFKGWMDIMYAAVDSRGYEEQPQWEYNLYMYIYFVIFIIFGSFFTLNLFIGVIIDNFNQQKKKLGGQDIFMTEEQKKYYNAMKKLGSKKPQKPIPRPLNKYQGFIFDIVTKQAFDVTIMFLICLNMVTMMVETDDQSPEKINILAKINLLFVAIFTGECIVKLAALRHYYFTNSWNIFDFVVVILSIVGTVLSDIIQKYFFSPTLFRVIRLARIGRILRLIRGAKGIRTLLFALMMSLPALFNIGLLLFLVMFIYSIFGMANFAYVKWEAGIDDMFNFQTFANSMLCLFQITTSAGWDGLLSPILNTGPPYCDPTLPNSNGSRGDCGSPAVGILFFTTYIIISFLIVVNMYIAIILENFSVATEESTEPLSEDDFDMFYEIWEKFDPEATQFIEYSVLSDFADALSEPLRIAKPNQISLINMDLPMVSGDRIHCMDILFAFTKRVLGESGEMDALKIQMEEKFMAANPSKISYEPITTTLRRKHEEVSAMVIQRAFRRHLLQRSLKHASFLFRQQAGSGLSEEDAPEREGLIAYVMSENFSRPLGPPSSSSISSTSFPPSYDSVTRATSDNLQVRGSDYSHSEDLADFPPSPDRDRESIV
Outline: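 Late sodium current through wild-type human hNav1.5 stably expressed in HEK293 cells (no beta subunits) was recorded by automated whole-cell patch clamp on a PatchXpress 7000A at 24-27° C. Late INa was induced with 10 μM Tefluthrin or 50 nM ATX II. Cells were stepped from −120 mV to −20 mV for 250 ms at 0.1 Hz, and percent block was normalized to current in Na-free extracellular solution.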

Going from FC(F)(F)Oc1ccc(-c2ccc3nnc(COCC4CC4)n3c2)cc1 [BHN-128, 3-[(cyclopropylmethoxy)methyl]-6-[4-(trifluoromethoxy)phenyl][1,2,4]triazolo[4,3-a]pyridine] to Fc1ccccc1COCc1nnc2ccc(-c3ccc(OC(F)(F)F)cc3)cn12 [BHN-238, 3-{[(2-fluorobenzyl)oxy]methyl}-6-[4-(trifluoromethoxy)phenyl][1,2,4]triazolo[4,3-a]pyridine], the inhibition at 1 µM rises from 65.6% to 80.6%.

Compared with FC(F)(F)Oc1ccc(-c2ccc3nnc(Sc4ccccc4)n3c2)cc1 [BHN-170, 3-(phenylsulfanyl)-6-[4-(trifluoromethoxy)phenyl][1,2,4]triazolo[4,3-a]pyridine], FC(F)(F)c1nnc2ccc(-c3ccc(-c4ccccc4)cc3)cn12 [BHN-57, 6-(biphenyl-4-yl)-3-(trifluoromethyl)[1,2,4]triazolo[4,3-a]pyridine] is lower in inhibition at 1 µM: 66.2% for the first, 45.8% for the second.

Compared with FC(F)c1nnc2ccc(-c3ccc(OC(F)(F)F)cc3)nn12 [BHN-12, 3-(difluoromethyl)-6-[4-(trifluoromethoxy)phenyl][1,2,4]triazolo[4,3-b]pyridazine], Fc1cc(-c2ccc3nnc(C(F)F)n3n2)ccc1OC(F)(F)F [BHN-253, 3-(difluoromethyl)-6-[3-fluoro-4-(trifluoromethoxy)phenyl][1,2,4]triazolo[4,3-b]pyridazine] is lower in inhibition at 1 µM: 39.6% for the first, 39.4% for the second.

First: Cc1cc(COC(F)(F)c2nnc3ccc(-c4ccc(OC(F)(F)F)cc4)cn23)no1 [BHN-193, 3-{difluoro[(5-methyl-1,2-oxazol-3-yl)methoxy]methyl}-6-[4-(trifluoromethoxy)phenyl][1,2,4]triazolo[4,3-a]pyridine]
Second: CC(O)COC(F)(F)c1nnc2ccc(-c3ccc(OC(F)(F)F)cc3)cn12 (stereo not shown) [BHN-158, 1-(difluoro{6-[4-(trifluoromethoxy)phenyl][1,2,4]triazolo[4,3-a]pyridin-3-yl}methoxy)propan-2-ol]
The inhibition at 1 µM of the first is higher: 54.7% for the first, 32.9% for the second.

First: FC(F)(F)Oc1ccc(-c2ccc3nnc(C(F)(F)OCc4ccccc4-c4ccc(C5CC5)nc4)n3c2)cc1 [BHN-325, 3-[{[2-(6-cyclopropylpyridin-3-yl)benzyl]oxy}(difluoro)methyl]-6-[4-(trifluoromethoxy)phenyl][1,2,4]triazolo[4,3-a]pyridine]
Second: FC(F)(F)Oc1ccc(-c2ccc3nnc(C(F)(F)OCc4cc(-c5ccc(C6CC6)nc5)ccn4)n3c2)cc1 [BHN-316, 6-cyclopropyl-2′-[(difluoro{6-[4-(trifluoromethoxy)phenyl][1,2,4]triazolo[4,3-a]pyridin-3-yl}methoxy)methyl]-3,4′-bipyridine]
The inhibition at 1 µM of the first is higher: 68.3% for the first, 59% for the second.

First: FC(F)(F)c1ncc2ccc(-c3nc4ccccc4s3)cn12 [BHN-213, 2-[3-(trifluoromethyl)imidazo[1,5-a]pyridin-6-yl]-1,3-benzothiazole]
Second: CSc1ccc(-c2ccc3cnc(C(F)(F)F)n3c2)cn1 [BHN-101, 6-[6-(methylsulfanyl)pyridin-3-yl]-3-(trifluoromethyl)imidazo[1,5-a]pyridine]
The inhibition at 1 µM of the first is lower: 24% for the first, 32.3% for the second.

Compared with FC(F)(F)Oc1ccc(-c2ccc3nnc(COCc4ccc(Cl)cc4Cl)n3c2)cc1 [BHN-250, 3-{[(2,4-dichlorobenzyl)oxy]methyl}-6-[4-(trifluoromethoxy)phenyl][1,2,4]triazolo[4,3-a]pyridine], N#Cc1cccc(COC(F)(F)c2nnc3ccc(-c4ccc(OC(F)(F)F)cc4)cn23)c1 [BHN-261, 3-[(difluoro{6-[4-(trifluoromethoxy)phenyl][1,2,4]triazolo[4,3-a]pyridin-3-yl}methoxy)methyl]benzonitrile] is lower in inhibition at 1 µM: 79.1% for the first, 56.8% for the second.

Compared with FC(F)(F)c1ccc(-c2ccc3nnc(C(F)(F)F)n3c2)nn1 [BHN-121, 3-(trifluoromethyl)-6-[6-(trifluoromethyl)pyridazin-3-yl][1,2,4]triazolo[4,3-a]pyridine], FC(F)(F)c1ncc(-c2ccc3nnc(C(F)(F)F)n3c2)cn1 [BHN-122, 3-(trifluoromethyl)-6-[2-(trifluoromethyl)pyrimidin-5-yl][1,2,4]triazolo[4,3-a]pyridine] is higher in inhibition at 1 µM: 21.9% for the first, 31.8% for the second.

First: O=C(NCC(F)(F)c1nnc2ccc(-c3ccc(OC(F)(F)F)cc3)cn12)c1ccccn1 [BHN-184, N-(2,2-difluoro-2-{6-[4-(trifluoromethoxy)phenyl][1,2,4]triazolo[4,3-a]pyridin-3-yl}ethyl)pyridine-2-carboxamide]
Second: FC(F)(F)Oc1ccc(-c2ccc3nnc(C(F)(F)COCc4ccccn4)n3c2)cc1 [BHN-172, 3-[1,1-difluoro-2-(pyridin-2-ylmethoxy)ethyl]-6-[4-(trifluoromethoxy)phenyl][1,2,4]triazolo[4,3-a]pyridine]
The inhibition at 1 µM of the first is lower: 29.8% for the first, 30.7% for the second.

Compared with Clc1ccc(Oc2ccc(-c3ccc4nnnn4c3)cc2)cc1 [BHN-218, 6-[4-(4-chlorophenoxy)phenyl]tetrazolo[1,5-a]pyridine], FC(F)(F)c1nnc2ccc(-c3ccc(Nc4ccc(Cl)cc4)cc3)cn12 [BHN-283, 4-chloro-N-{4-[3-(trifluoromethyl)[1,2,4]triazolo[4,3-a]pyridin-6-yl]phenyl}aniline] is lower in inhibition at 1 µM: 36% for the first, 27.2% for the second.

First: Cc1cc(OC(F)(F)F)ccc1-c1ccc2nnc(C(C)C)n2n1 [BHN-33, 6-[2-methyl-4-(trifluoromethoxy)phenyl]-3-(propan-2-yl)[1,2,4]triazolo[4,3-b]pyridazine]
Second: CC(C)c1nnc2ccc(-c3ccc(OCC(F)(F)F)nc3)nn12 [BHN-203, 3-(propan-2-yl)-6-[6-(2,2,2-trifluoroethoxy)pyridin-3-yl][1,2,4]triazolo[4,3-b]pyridazine]
The inhibition at 1 µM of the first is higher: 59.2% for the first, 19.3% for the second.

Compared with Fc1cc(-c2ccc3nnc(C(F)(F)F)n3n2)cc(F)c1Oc1ccccc1 [BHN-210, 6-(3,5-difluoro-4-phenoxyphenyl)-3-(trifluoromethyl)[1,2,4]triazolo[4,3-b]pyridazine], FC(F)(F)c1nnc2ccc(-c3cccc4ccccc34)cn12 [BHN-120, 6-(naphthalen-1-yl)-3-(trifluoromethyl)[1,2,4]triazolo[4,3-a]pyridine] is lower in inhibition at 1 µM: 33.8% for the first, 20.4% for the second.

Going from COCC(F)(F)c1nnc2ccc(-c3ccc(OC(F)(F)F)c(F)c3)cn12 [BHN-232, 3-(1,1-difluoro-2-methoxyethyl)-6-[3-fluoro-4-(trifluoromethoxy)phenyl][1,2,4]triazolo[4,3-a]pyridine] to Cc1noc(-c2cc(-c3ccc4nnc(C(F)(F)F)n4c3)ccc2OC(F)(F)F)n1 [BHN-182, 6-[3-(3-methyl-1,2,4-oxadiazol-5-yl)-4-(trifluoromethoxy)phenyl]-3-(trifluoromethyl)[1,2,4]triazolo[4,3-a]pyridine], the inhibition at 1 µM falls from 45.3% to 18.9%.

Compared with COCc1c(-c2ccc(OC(F)(F)F)cc2)ccc2nnc(C(F)(F)F)n12 [BHN-277, 5-(methoxymethyl)-6-[4-(trifluoromethoxy)phenyl]-3-(trifluoromethyl)[1,2,4]triazolo[4,3-a]pyridine], CC(OC(F)(F)c1nnc2ccc(-c3ccc(OC(F)(F)F)cc3)cn12)c1ccc(F)cc1 (stereo not shown) [BHN-217, 3-{difluoro[1-(4-fluorophenyl)ethoxy]methyl}-6-[4-(trifluoromethoxy)phenyl][1,2,4]triazolo[4,3-a]pyridine] is lower in inhibition at 1 µM: 38% for the first, 16.8% for the second.

Going from FC(F)(F)Oc1ccc(-c2ccc3nnc(C(F)(F)OCc4coc(-c5ccccc5)n4)n3c2)cc1 [BHN-299, 3-{difluoro[(2-phenyl-1,3-oxazol-4-yl)methoxy]methyl}-6-[4-(trifluoromethoxy)phenyl][1,2,4]triazolo[4,3-a]pyridine] to FC(F)(F)Oc1ccc(-c2ccc3nnc(C(F)(F)OCc4cc(C(F)(F)F)nc5ccccc45)n3c2)cc1 [BHN-290, 4-[(difluoro{6-[4-(trifluoromethoxy)phenyl][1,2,4]triazolo[4,3-a]pyridin-3-yl}methoxy)methyl]-2-(trifluoromethyl)quinoline], the inhibition at 1 µM falls from 51.1% to 34.6%.

Going from Fc1ccc(Nc2ccc(-c3ccc4nnc(C(F)(F)F)n4c3)cc2)cc1 [BHN-284, 4-fluoro-N-{4-[3-(trifluoromethyl)[1,2,4]triazolo[4,3-a]pyridin-6-yl]phenyl}aniline] to CN(c1ccccc1)c1ccc(-c2ccc3nnc(C(F)(F)F)n3c2)cc1 [BHN-278, N-methyl-N-phenyl-4-[3-(trifluoromethyl)[1,2,4]triazolo[4,3-a]pyridin-6-yl]aniline], the inhibition at 1 µM rises from 31.4% to 54.2%.

With FC(F)(F)Oc1ccc(-c2ccc3nnc(C(F)(F)OCc4ccnc(N5CCCCC5)c4)n3c2)cc1 [BHN-320, 3-(difluoro{[2-(piperidin-1-yl)pyridin-4-yl]methoxy}methyl)-6-[4-(trifluoromethoxy)phenyl][1,2,4]triazolo[4,3-a]pyridine] the inhibition at 1 µM was 76.3%.

same assay, conditions: compound at 10 μM; HEK293 cells expressing hNav1.5; late INa generated with 10 μM Tefluthrin (or 50 nM ATX II); read-out: LateINa_10 uM (percent block of late INa)

Compared with FC(F)c1nnc2ccc(-c3ccc(OC(F)(F)F)cc3)nn12 [BHN-12, 3-(difluoromethyl)-6-[4-(trifluoromethoxy)phenyl][1,2,4]triazolo[4,3-b]pyridazine], Cc1cc(OC(F)(F)F)ccc1-c1ccc2nnc(C(C)C)n2n1 [BHN-33, 6-[2-methyl-4-(trifluoromethoxy)phenyl]-3-(propan-2-yl)[1,2,4]triazolo[4,3-b]pyridazine] is lower in inhibition at 10 µM: 79.7% for the first, 75.9% for the second.

First: CCNc1nnc2ccc(-c3ccc(OC(F)(F)F)cc3)cn12 [BHN-331, N-ethyl-6-[4-(trifluoromethoxy)phenyl][1,2,4]triazolo[4,3-a]pyridin-3-amine]
Second: CCNc1nnc2ccc(-c3ccc(Oc4ccccc4)cc3)cn12 [BHN-334, N-ethyl-6-(4-phenoxyphenyl)[1,2,4]triazolo[4,3-a]pyridin-3-amine]
The inhibition at 10 µM of the first is lower: 38.2% for the first, 40.6% for the second.

First: FC(F)(F)c1nnc2ccc(-c3ccc(-c4ccccc4)cc3)cn12 [BHN-57, 6-(biphenyl-4-yl)-3-(trifluoromethyl)[1,2,4]triazolo[4,3-a]pyridine]
Second: FC(F)(F)c1nnc2ccc(-c3ccc(Oc4ccccc4)cc3)cn12 [BHN-332, 6-(4-phenoxyphenyl)-3-(trifluoromethyl)[1,2,4]triazolo[4,3-a]pyridine]
The inhibition at 10 µM of the first is lower: 39.5% for the first, 83.5% for the second.

Molecule Cc1c(-c2ccc(C(F)(F)F)cc2)ccc2ncnn12 [BHN-350, 5-methyl-6-[4-(trifluoromethyl)phenyl][1,2,4]triazolo[1,5-a]pyridine] has an inhibition at 10 µM of 44.5%.
